Where two headings read alike, the source gives them in different places.
What was measured:
normolipidaemic rats [1] = assay: Effects on serum lipids in vivo, rat Model B (semi-synthetic diet rich in sucrose and cholesterol); design: species or system Male Sprague-Dawley rats; details: compound at 0.1% of the diet (approximately 100 mg/kg/day), 7 days, * = significant at p<0.05
Description: (§1) The compounds of the Examples above were tested for their effects on serum lipids in vivo using normolipidaemic rats.
(§2) Male Sprague-Dawley rats, 80-100 g, were randomised into groups of 8 after 5-7 days of feeding on the diet. The compounds were fed to the rats at a concentration of 0.1% of the powered diet (i.e. approximately 100 mg/kg/day), unless otherwise stated. The control groups were fed only the diet. At the end of the experiment, i.e. after 7 days, the rats were killed and their individual total serum cholesterol and triglyceride measured in mg/100 ml using a Technicon Autoanalyser. The high density lipoprotein (HDL)-cholesterol fraction, which was obtained from the serum by precipitation with heparin-manganous chloride, was only measured on "pooled" samples from each group.
(§3) The results are shown in Table 1 below. • ^+ Model A used an Oxoid diet. • Model B used a semi-synthetic diet rich in sucrose and cholesterol

normolipidaemic rats [2] = assay: Effects on serum lipids in vivo, rat Model A (Oxoid diet); design: species or system Male Sprague-Dawley rats; details: po, 168 h, compound at 0.1% of the diet (approximately 100 mg/kg/day), 7 days
Description: as §1, §2, §3

[3] = * = significant at p<0.05, read-out: Percentage difference from control values in Total Serum cholesterol
[4] = * = significant at p<0.05, read-out: Percentage difference from control values in Total Serum triglyceride

Structure (SMILES) | Percentage difference from control values in Total Serum cholesterol (normolipidaemic rats [1]) | Percentage difference from control values in Total Serum triglyceride (normolipidaemic rats [1]) | change in vivo at 100 mg/kg/day (normolipidaemic rats [2]; [3]) [%] | change in vivo at 100 mg/kg/day (normolipidaemic rats [2]; [4]) [%]
O=C(O)C(Cc1ccccn1)NCc1ccc(Cl)cc1 (racemic) [Example 11, DL-2-(4-Chlorobenzylamino)-3-(2-pyridyl)-propionic acid] | +27^* % | +27% |  | 
O=C(O)[C@H](Cc1ccccc1)NCc1ccc(Br)cc1 [Example 4, N-(4-Bromobenzyl)-L-phenylalanine] |  |  | 43 | -40
O=C(O)C(Cc1c[nH]c2ccccc12)NCc1ccc(Cl)cc1 (racemic) [Example 14, N-4-Chlorobenzyl-DL-tryptophan] |  |  | 36 | 
COC(=O)[C@H](Cc1ccccc1)NCc1ccc(Cl)cc1 [Example 18, N-(4-chlorobenzyl)-L-phenylalanine methyl ester] |  |  | 25 | -43
O=C(O)C(Cc1ccncc1)NCc1ccc(Cl)cc1 (racemic) [Example 12, DL-2-(4-Chlorobenzylamino)-3-(4-pyridyl)-propionic acid] | -10% | -10% |  | 
O=C(O)[C@H](Cc1ccccc1)NCc1ccc2c(c1)OCO2 [Example 1, N-(3,4-methylenedioxybenzyl)-L-phenylalanine] |  |  |  | -31
O=C(O)[C@H](Cc1ccccc1)NCc1cccc(C(F)(F)F)c1 [Example 5, N-(3-Trifluoromethylbenzyl)-L-phenylalanine] |  |  | 47 | -41
O=C(O)C(Cc1ccc(Cl)cc1)NCc1ccc(Cl)cc1 (racemic) [Example 7, N-(4-Chlorobenzyl)-DL-4-chlorophenylalanine] |  |  | 56 | -50
O=C(O)[C@@H](Cc1ccccc1)NCc1ccc(Cl)cc1 [Example 3, N-(4-Chlorobenzyl)-D-phenylalanine] | +49^* % | -67^* % |  | 
O=C(O)C(CCc1ccccc1)NCc1ccc(Cl)cc1 (racemic) [Example 15, (DL)-2-(4-Chlorobenzylamino)-4-phenylbutyric acid] |  |  | 68 | -11
O=C(O)[C@H](Cc1ccccc1)NCc1ccc(Cl)cc1 [Example 2, N-(4-chlorobenzyl)-L-phenylalanine] | +14% | -44^* % | 31 | -40
O=C(O)[C@H](CSCc1ccccc1)NCc1ccc(Cl)cc1 [Example 8, N-(4-Chlorobenzyl)-S-benzyl-L-cysteine] |  |  | 52 | -35
O=C(O)[C@H](Cc1ccc(O)cc1)NCc1ccc(Cl)cc1 [Example 17, N-4-chlorobenzyl-tyrosine] |  |  |  | -18
